Data taken from US10765647B2, “Composition for treating diabetes, containing extract of yukmijihwangtang” (COMPREHENSIVE AND INTEGRATIVE MEDICINE INSTITUTE, priority 2013, dated 2020).

How the values were obtained:
STZ-induced diabetes rat [1] = assay: STZ-induced diabetes rats: body weight and body weight gain; format: in vivo, Sprague-Dawley (SD) rats; details: vs STZ control, YMJHT 400 mg/kg
Method: (§1) As the laboratory animals, Sprague-Dawley (SD), Slc:SD rats (6-week-old females, SLC, Shizuoka, Japan) were used, an experiment method was briefly illustrated in FIG. 5A, and the design of experimental groups is shown in FIG. 5B.
(§2) 105 SD rats were purchased, and 21 days after STZ administration, only rats having uniform body weights ([…]) and blood sugar levels (257˜358 mg/dl) were selected. Among those, 8 rats per group were used in the experiment, and separate 8 rats were also prepared as the intact vehicle control (body weight: 200˜262 g; blood sugar level: 88˜100 mg/dl).
(§3) STZ was diluted with 50 mM citrate buffer (pH 6.0), and the resultant diluent was peritoneally administered once at a dose of 60 mg/kg/5 ml to induce diabetes, and in the intact vehicle control, instead of STZ, the same dose of citrate buffer was solely administered in the same route.
(1) Change in body weight: Body weight gains during diabetes induction and administration of a candidate material for 28 days

STZ-induced diabetes rat [2] = assay: STZ-induced diabetes rats: liver protecting effect; format: in vivo, Sprague-Dawley (SD) rats; details: vs STZ control; single treated: metformin 500 mg/kg, YMJHT 400 mg/kg; daily 28 days
Method: as §1, §2, §3
(3) Liver protecting effect: changes in the liver weight, blood AST and ALT contents, histopathological findings on the liver—(Degeneration rate of the liver: ratio of degenerated liver cells per mm^2 of hepatocyte, number of liver cells: number of liver cells observed per mm^2 of hepatocyte).
(§4) To clarify degrees of inducing diabetes and diabetic complications, blood sugar levels was measured at 21 days after the STZ administration and 28 days after the administration of a candidate material, and then a difference between them was estimated. Also, to minimize a difference between organ weights depending on a body weight, an absolute weight was measured, and then a ratio to the body weight, that is, a relative weight, was calculated.

STZ-induced diabetes rat [3] = assay: STZ-induced diabetes rats: kidney protecting effect; format: in vivo, Sprague-Dawley (SD) rats; details: vs STZ control; single treated: metformin 500 mg/kg, YMJHT 400 mg/kg; daily 28 days
Method: as §1, §2, §3
(4) Kidney protecting effect: kidney weights, changes in blood BUN and creatinine, histopathological findings on kidney—numbers of degenerated renal tubules and glomeruli
as §4

STZ-induced diabetes rat [4] = assay: STZ-induced diabetes rats: antioxidative defense system in kidney; format: in vivo, Sprague-Dawley (SD) rats; details: vs STZ control; single treated: metformin 500 mg/kg, YMJHT 400 mg/kg; daily 28 days
Method: as §1, §2, §3
(8) Change in antioxidative defense system in kidney: lipid peroxidation in kidney (nM of malondialdehyde (MDA)/g protein), endogenous antioxidant—glutathione (GSH) content (nM/g protein), antioxidant enzyme—Changes in catalase and superoxide dismutase (SOD) activities (U/mg protein)

STZ-induced diabetes rat [5] = assay: STZ-induced diabetes rats: antidiabetic effect (blood sugar, pancreas); format: in vivo, Sprague-Dawley (SD) rats; details: vs STZ control, YMJHT 400 mg/kg
Method: as §1, §2, §3
(2) Antidiabetic effect: Change in blood sugar level, morphological change in pancreas tissue—changes in the number and diameter of pancreatic islets, and numerical changes in insulin and glucagon immunoreactive cells
as §4

STZ-induced diabetes rat [6] = assay: STZ-induced diabetes rats: antihyperlipidemic effect; format: in vivo, Sprague-Dawley (SD) rats; details: vs STZ control; single treated: metformin 500 mg/kg, YMJHT 400 mg/kg; daily 28 days
Method: as §1, §2, §3

STZ-induced diabetes rat [7] = assay: STZ-induced diabetes rats: ocular protecting effect; format: in vivo, Sprague-Dawley (SD) rats; details: vs STZ control; single treated: metformin 500 mg/kg, YMJHT 400 mg/kg; daily 28 days
Method: as §1, §2, §3

STZ-induced diabetes rat [8] = assay: STZ-induced diabetes rats: immune activity effect (thymus, spleen); format: in vivo, Sprague-Dawley (SD) rats; details: vs STZ control; single treated: metformin 500 mg/kg, YMJHT 400 mg/kg; daily 28 days
Method: as §1, §2, §3
(6) Immune activity effect: thymus and spleen weights and histopathological findings—changes in spleen thickness, the number of white pulps and diameter, changes in thymus lobules and cortex thicknesses
as §4

in vivo = details: male, SD, rat, plasma, po, 500 mg/kg
[9] = before administration, single treated groups: metformin 500 mg/kg
[10] = single treated: metformin 500 mg/kg, daily 28 days

In the case of `CN(C)C(=N)N=C(N)N` [metformin], the “Body weight gains during the diabetes induction, change” value (STZ-induced diabetes rat [1]; [9]) is reported as 45.45%, the “Body weight gains during the 28-day administration, change” value (STZ-induced diabetes rat [1]; [10]) is reported as 193.31% and the “Absolute weight of the liver, change” value (STZ-induced diabetes rat [2]) is reported as −14.38%. For the same molecule, the “Blood ALT content, change” value (STZ-induced diabetes rat [2]) was −32.72%, the “Blood AST content, change” value (STZ-induced diabetes rat [2]) was −32.82% and the “Hepatic degeneration rate, change” value (STZ-induced diabetes rat [2]) was −29.61%. The “Number of mean hepatocytes per unit area, change” value (STZ-induced diabetes rat [2]) was 60.58%, the “Relative weight of the liver, change” value (STZ-induced diabetes rat [2]) was −27.69% and the “Absolute weight of the kidney, change” value (STZ-induced diabetes rat [3]) was −21.29%. The “Blood BUN content, change” value (STZ-induced diabetes rat [3]) was −31.69%, the “Blood creatinine content, change” value (STZ-induced diabetes rat [3]) was −31.29% and the “Number of degenerated glomeruli, change” value (STZ-induced diabetes rat [3]) was −36.94%. The “Number of degenerated renal tubules, change” value (STZ-induced diabetes rat [3]) was −29.90%, the “Relative weight of the kidney, change” value (STZ-induced diabetes rat [3]) was −32.41% and the “Catalase activity in the renal tissue, change” value (STZ-induced diabetes rat [4]) was 48.59%. For the same molecule, the “Content of the endogenous antioxidant in the renal tissue, GSH, change” value (STZ-induced diabetes rat [4]) was 64.65%, the “MDA content in the kidney tissue (lipid peroxidation indicator), change” value (STZ-induced diabetes rat [4]) was −32.56% and the “SOD activity in the renal tissue, change” value (STZ-induced diabetes rat [4]) was 51.47%. For the same molecule, the “Blood sugar level at 21 days after the STZ administration, change” value (STZ-induced diabetes rat [5]; [9]) was 1.68%, the “Blood sugar level at 28 days after the STZ administration, change” value (STZ-induced diabetes rat [5]; [10]) was −27.25% and the “Blood sugar variation from 21 days after the STZ administration to 28 days after the administration of a candidate material, change” value (STZ-induced diabetes rat [5]; [10]) was −59.39%. The “Mean diameters of the pancreatic islets, change” value (STZ-induced diabetes rat [5]; [10]) was 97.80%, the “Numbers of insulin immunoreactive cells in the pancreatic islet, change” value (STZ-induced diabetes rat [5]; [10]) was 202.99% and the “Numbers of pancreatic islets per unit area, change” value (STZ-induced diabetes rat [5]; [10]) was 120.93%. The “Numbers of the glucagon immunoreactive cells in the pancreatic islet, change” value (STZ-induced diabetes rat [5]; [10]) was −27.78%, the “Pancreas absolute weights, change” value (STZ-induced diabetes rat [5]; [10]) was 7.95% and the “Relative pancreas weights with respect to the body weight, change” value (STZ-induced diabetes rat [5]; [10]) was −7.49%. For the same molecule, the “Blood HDL content, change” value (STZ-induced diabetes rat [6]) was 27.12%, the “Blood LDL content, change” value (STZ-induced diabetes rat [6]) was −29.08% and the “Total cholesterol content in blood, change” value (STZ-induced diabetes rat [6]) was −30.57%. For the same molecule, the “Triglyceride content in blood, change” value (STZ-induced diabetes rat [6]) was −29.72%, the “Lens damage score, change” value (STZ-induced diabetes rat [7]) was −33.33% and the “Number of blood vessels present in an internal limiting membrane, change” value (STZ-induced diabetes rat [7]) was −44.55%. For the same molecule, the “Observer-based scores for cataract, change” value (STZ-induced diabetes rat [7]) was −38.89%, the “Quantitative image scores for cataract, change” value (STZ-induced diabetes rat [7]) was −40.56% and the “Thickness of the damaged part of the lens, change” value (STZ-induced diabetes rat [7]) was −46.34%. For the same molecule, the “Thickness of the inner nuclear layer in the retina, change” value (STZ-induced diabetes rat [7]) was 44.29%, the “Thickness of the plexiform layer in the retina, change” value (STZ-induced diabetes rat [7]) was 32.03% and the “Total thickness of the retina, change” value (STZ-induced diabetes rat [7]) was 33.45%. The “Absolute weight of the spleen, change” value (STZ-induced diabetes rat [8]) was 31.35%, the “Absolute weight of the thymus, change” value (STZ-induced diabetes rat [8]) was 73.03% and the “Mean diameter of the white pulp, change” value (STZ-induced diabetes rat [8]) was 101.18%. For the same molecule, the “Number of white pulps per unit area (100 mm^2), change” value (STZ-induced diabetes rat [8]) was 76.53%, the “Relative weight of the spleen, change” value (STZ-induced diabetes rat [8]) was 12.17% and the “Relative weight of the thymus, change” value (STZ-induced diabetes rat [8]) was 50.71%. The “Total thickness of the spleen, change” value (STZ-induced diabetes rat [8]) was 36.43%, the “Total thickness of the thymus cortex, change” value (STZ-induced diabetes rat [8]) was 78.00% and the “Total thickness of the thymus lobules, change” value (STZ-induced diabetes rat [8]) was 198.88%. For the same molecule, the Cmax (in vivo) was 20200 ± 3420 ng/mL.
